# Source: article PMC4252796 (Molecular and biochemical parasitology, 2014)
# Molecular target: T1, LmjPEM1 (Leishmania major, UniProt Q4Q5U4)
# T1 sequence (Q4Q5U4 1-582): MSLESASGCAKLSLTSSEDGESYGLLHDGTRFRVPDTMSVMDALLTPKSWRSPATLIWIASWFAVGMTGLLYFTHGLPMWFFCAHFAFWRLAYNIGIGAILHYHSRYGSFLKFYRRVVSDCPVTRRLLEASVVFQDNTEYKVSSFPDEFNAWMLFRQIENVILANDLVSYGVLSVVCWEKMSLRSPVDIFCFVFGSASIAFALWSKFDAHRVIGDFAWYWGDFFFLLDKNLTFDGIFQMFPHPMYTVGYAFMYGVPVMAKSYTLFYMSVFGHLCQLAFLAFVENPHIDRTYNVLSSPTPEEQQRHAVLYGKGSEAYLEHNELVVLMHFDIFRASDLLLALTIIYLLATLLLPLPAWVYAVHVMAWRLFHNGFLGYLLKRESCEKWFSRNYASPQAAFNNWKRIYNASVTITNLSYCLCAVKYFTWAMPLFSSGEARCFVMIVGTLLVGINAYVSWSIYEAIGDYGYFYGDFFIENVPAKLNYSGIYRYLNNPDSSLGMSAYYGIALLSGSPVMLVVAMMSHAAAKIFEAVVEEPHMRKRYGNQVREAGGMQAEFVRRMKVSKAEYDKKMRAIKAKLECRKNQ
# Assay: radiometric PEMT assay, 3H-SAM incorporation into total lipids, yeast extract
# Assay type: biochemical
# Details: endogenous yeast PE as substrate; 0.1 M TrisHCl pH 7.5, 30°C, 50 min
row,SMILES,% activity at 10 or 100 μM
1,"CCCCCCCCCCCCCCCC[N+](C)(C)C [compound 2, hexadecyltrimethylammonium bromide]",LmjPEM1 activity was best inhibited by hexadecyltrimethylammonium bromide
2,"C[N+](C)(C)CCO [compound 3, choline]",while choline had a very small effect
3,"CCCCCCCCCCCCCCCCOP(=O)([O-])OCC[N+](C)(C)C [compound 5, miltefosine]","followed by miltefosine, octadecyltrimethylammonium bromide, and octadecylphosphocholine"
4,"CCCCCCCCCCCCCCCCCCOP(=O)([O-])OCC[N+](C)(C)C [compound 6, octadecylphosphocholine]","followed by miltefosine, octadecyltrimethylammonium bromide, and octadecylphosphocholine"
5,"CCCCCCCCCCCCCCCCCC[N+](C)(C)C [compound 1, octadecyltrimethylammonium bromide]","followed by miltefosine, octadecyltrimethylammonium bromide, and octadecylphosphocholine"
